Results on 2 compounds are retold here after patent US20200323213A1, “Methods of use for compositions comprising biguanide compound and diol surfactant” (3M INNOVATIVE PROPERTIES COMPANY, priority 2014, published 2020).

Series [1] has as its system Staphylococcus aureus strain 15981. In words: Antimicrobial efficacy test: survival of planktonic S. aureus after short exposure. Type of series: cell-based. The conditions noted are these: 0.1wt-% of CHG, alone or in combination with DYNOL (text summary, matches Table 4). The source says:
The composition described herein can reduce and eliminate Staphylococcus aureus and Pseudomonas aeruginosa. Those of ordinary skill in the art will readily determine when a composition provides antimicrobial activity using assay and bacterial screening methods well known in the art. For example, the compositions can be evaluated utilizing Antimicrobial Efficacy Test described in the Examples Section. Briefly, a bacterial suspension is introduced into a liquid composition. After a sufficient contact time, the sample containing the exposed bacteria is collected, placed in neutralizing broth, a sample is taken and diluted, and plated on growth medium. The plated sample is incubated at an appropriate temperature and humidity for twenty four to forty-eight hours and the number of viable bacterial colonies growing on the plate is counted. Once colonies have been counted the reduction in the number of bacteria caused by the test composition is readily determined. Bacterial reduction is generally reported as log10 reduction determined by the difference between the log10 of the initial inoculum count (i.e. the control) and the log10 of the inoculum count after exposure. […]

For series [2] the following is noted: cited from earlier work.

Take `N=C(NCCCCCCNC(=N)NC(=N)Nc1ccc(Cl)cc1)NC(=N)Nc1ccc(Cl)cc1.O=C(O)[C@H](O)[C@@H](O)[C@H](O)[C@H](O)CO.O=C(O)[C@H](O)[C@@H](O)[C@H](O)[C@H](O)CO` [CHG, chlorhexidine digluconate]: the log10 reduction in series [1] is recorded as 0.32.

In the case of `CC(=O)O.CC(=O)O.NC(=N\CCCCCC/N=C(N)/N=C(\N)Nc1ccc(Cl)cc1)/N=C(\N)Nc1ccc(Cl)cc1` [diacetate], the “solubility in aqueous fluid” value in series [2] is listed as 1.9 g/100 ml.
